These results are taken from patent US11390637B2, “Salts of antiviral phosphonate analogues and process for preparation thereof” (CIPLA LIMITED, priority 2017, dated 2022).

Structures can show the parent of a compound that is named as a salt.

Series [1] is described as follows: In-vitro intrinsic dissolution of 200 mg pellets of API without excipients. It is filed as physicochemical. Particulars: for % release of Compound (I) from the respective Salts: Table 8; for % release of Compound (I) from the respective Salts / % release of active from fumarate salt pellet: 200 mg pellet, 0.01N HCl, 37° C., paddle 75 rpm; for % release of active from fumarate salt pellet: Table 7. As for the experimental part: A tableting mixture (200 mg) comprising solely salts of (((1-(6-amino-9H-purin-9-yl)propan-2-yloxy)methyl) (phenoxy) phosphoryloxy) methyl pivalate-prepared according to any one of the examples 1 to 10 (i.e. with no excipients) was prepared and compressed to a pellet using an automatic KBR press operating at a compression pressure of 2 tones for 2 minutes.
Similarly a tableting mixture (200 mg) comprising a solely TAF (i.e. with no excipients) was prepared and compressed to a pellet using an automatic KBR press operating at a compression pressure of 2 tones for 2 minutes.
A tableting mixture (200 mg) comprising solely TDF (i.e. with no excipients) was prepared and compressed to a pellet using an automatic KBR press operating at a compression pressure of 2 tones for 2 minutes.
In-vitro dissolution studies were performed on the 200 mg pellet in a LAB INDIA DISSO 2000.
The pellet was fixed in a PFTE holder, such that only the pellet surface came into contact with the dissolution medium. The PFTE loaded holder was placed in the dissolution vessel containing 900 ml of 0.1M of HCl having […] at 37±0.5° C. Two pellets were measured for each run of the design of the experiments. Stirring was performed with a paddle rotating at 75 rpm. […]
Dissolution Media: 0.01N HCl
Bath temperature: 37.5° C.
Sample Preparation: Pellets were prepared by pressing sample with 2 ton pressure for 2 min
Note: Aliquots were analysed on HPLC.
The concentration of (((1-(6-amino-9H-purin-9-yl)propan-2-yloxy)methyl) (phenoxy) phosphoryloxy) methyl pivalate was quantified by HPLC UV method at a maximum wavelength of 300 nm under the conditions as specified below:
Standard Preparation: 25 mg standard dissolved to 25 ml with dissolution medium. 5 ml of this solution diluted to 25 ml with dissolution medium. Further 5 ml of this solution was diluted to 10 ml with diluent.
Sample Preparation: 200 mg of Sample pellets were prepared and subjected to dissolution. 10 ml of Aliquot was removed from the dissolution basket at predetermined time intervals. 5 ml of these aliquot was diluted to 10 ml with Diluent.
200 mg of input API of fumarate salt of (((1-(6-amino-9H-purin-9-yl)propan-2-yloxy)methyl) (phenoxy) phosphoryloxy) methyl pivalate used for pellet preparation.
The percentage of (((1-(6-amino-9H-purin-9-yl)propan-2-yloxy)methyl) (phenoxy) phosphoryloxy) methyl pivalate (TD), Tenofovir Alafenamide (TAF) and Tenofovir Disoproxil (TDF) released from the respective fumarate salt tablet were plotted against time as shown in FIG. 19. The intrinsic dissolution rate was derived from the slope of this curve.
To measure the intrinsic dissolution of the Salts of (((1-(6-amino-9H-purin-9-yl)propan-2-yloxy)methyl) (phenoxy) phosphoryloxy) methyl pivalate, samples were measured to compare the influence of the different parameter settings. At appropriate time intervals, an automated sample collector removes aliquots from the dissolution medium for analysis. The time interval for sampling can vary, for example, from 5 to 120 minutes, depending on the properties of the drug and dissolution medium used. Suitable dissolution equipment for these operations includes LAB INDIA DISSO 2000. Bath temperature—37.5° C.
200 mg of input API of each fumarate, oxalate, phosphate, citrate, succinate and tartrate Salts of (((1-(6-amino-9H-purin-9-yl)propan-2-yloxy)methyl) (phenoxy) phosphoryloxy) methyl pivalate used for pellet preparation.
The percentage of (((1-(6-amino-9H-purin-9-yl)propan-2-yloxy)methyl) (phenoxy) phosphoryloxy) methyl pivalate released from the respective salts tablet were plotted against time as shown in FIG. 20. The intrinsic dissolution rate was derived from the slope of this curve.

Series [2] is described as follows: Hygroscopicity (statement, no method described). Particulars: in words. Format: physicochemical.
Series [3] can be described thus: Solubility in physiologically acceptable solvents (statement, no method described). Particulars: in words.

Regarding `CC(Cn1cnc2c(N)ncnc21)OCP(=O)(OCOC(=O)C(C)(C)C)Oc1ccccc1.O=C(O)CC(O)(CC(=O)O)C(=O)O` (centres unmarked) [Citrate, (((1-(6-amino-9H-purin-9-yl)propan-2-yloxy)methyl) (phenoxy)phosphoryloxy) methyl pivalate citric acid salt], the “% release of Compound (I) from the respective Salts” value (“% release of Compound (I)” for short) in series [1] (5 min) is 4%; in series [1] (15 min), 12%; in series [1] (30 min), 23%; in series [1] (45 min), 33%; in series [1] (60 min) it was 42%; in series [1] (90 min), 63%. In addition, the “% release of Compound (I)” value in series [1] (120 min) is on record as 70%; in series [1] (150 min), 66%; in series [1] (180 min), 67%; in series [1] (210 min), 66%; in series [1] (240 min) it was 69%. Moreover, the hygroscopicity result in series [2] was “not hygroscopic”. Further, in series [3], the “solubility in physiologically acceptable solvents” value is listed as “readily soluble”.
`CC(Cn1cnc2c(N)ncnc21)OCP(=O)(OCOC(=O)C(C)(C)C)Oc1ccccc1.O=C(O)/C=C/C(=O)O` (centres unmarked) [Fumarate, (((1-(6-amino-9H-purin-9-yl)propan-2-yloxy)methyl) (phenoxy)phosphoryloxy) methyl pivalate fumaric acid salt]: the “% release of active from fumarate salt pellet” value (shortened to “% release of active”) in series [1] (5 min) is 7%; in series [1] (10 min), 5%; in series [1] (15 min) it was 6%; in series [1] (30 min), 12%; in series [1] (45 min), 18%; in series [1] (60 min) it was 24%. Besides, the “% release of active” value in series [1] (90 min) turned out to be 35%; in series [1] (120 min), 45%. Besides, the “% release of Compound (I)” value was found to be 3% in series [1] (5 min); 7% in series [1] (15 min); 12% in series [1] (30 min); 18% in series [1] (45 min); 24% in series [1] (60 min); 35% in series [1] (90 min). The “% release of Compound (I)” value in series [1] (120 min) is given as 45%; in series [1] (150 min) it was 56%; in series [1] (180 min), 66%; in series [1] (210 min), 75%; in series [1] (240 min), 83%. In addition, the “dissolution profile compared with TAF and TDF” value in series [1] (in words, from the data of Table 7) is “slow dissolution profile than TAF and TDF”.
Turning to `CC(Cn1cnc2c(N)ncnc21)OCP(=O)(OCOC(=O)C(C)(C)C)Oc1ccccc1.O=C(O)C(=O)O` (centres unmarked) [Oxalate, (((1-(6-amino-9H-purin-9-yl)propan-2-yloxy)methyl) (phenoxy)phosphoryloxy) methyl pivalate oxalic acid salt], the “% release of Compound (I)” value in series [1] (5 min) turned out to be 2%; in series [1] (15 min), 4%; in series [1] (30 min), 7%; in series [1] (45 min), 10%; in series [1] (60 min), 15%; in series [1] (90 min) it was 23%. The “% release of Compound (I)” value is 31% in series [1] (120 min); 40% in series [1] (150 min); 46% in series [1] (180 min); 53% in series [1] (210 min); 60% in series [1] (240 min). The “dissolution profile compared to other salts” value in series [1] (in words, from the data of Table 8) is given as “slowest dissolution profile”. Moreover, the hygroscopicity result in series [2] is “not hygroscopic”. Besides, the “solubility in physiologically acceptable solvents” value in series [3] is given as “readily soluble”.
For `CC(C)OC(=O)[C@H](C)N[P@](=O)(CO[C@H](C)Cn1cnc2c(N)ncnc21)Oc1ccccc1` [TAF, Tenofovir Alafenamide Fumarate, reference compound], the “% release of active” value in series [1] (5 min) worked out at 6%; in series [1] (10 min) it was 7%; in series [1] (15 min), 9%; in series [1] (30 min) it was 16%; in series [1] (45 min) it was 24%; in series [1] (60 min), 31%. Moreover, the “% release of active” value in series [1] (90 min) is 46%; in series [1] (120 min), 60%.
`CC(C)OC(=O)OCOP(=O)(CO[C@H](C)Cn1cnc2c(N)ncnc21)OCOC(=O)OC(C)C` [TDF, Tenofovir Disoproxil Fumarate, reference compound]: the “% release of active” value was found to be 8% in series [1] (5 min); 5% in series [1] (10 min); 7% in series [1] (15 min); 13% in series [1] (30 min); 19% in series [1] (45 min); 26% in series [1] (60 min). The “% release of active” value came out at 37% in series [1] (90 min) and 50% in series [1] (120 min).
For `CC(Cn1cnc2c(N)ncnc21)OCP(=O)(OCOC(=O)C(C)(C)C)Oc1ccccc1.O=C(O)C(O)C(O)C(=O)O` (centres unmarked) [Tartrate, (((1-(6-amino-9H-purin-9-yl)propan-2-yloxy)methyl) (phenoxy)phosphoryloxy) methyl pivalate tartaric acid salt], the “% release of Compound (I)” value amounted to 2% in series [1] (5 min); 6% in series [1] (15 min); 12% in series [1] (30 min); 17% in series [1] (45 min); 24% in series [1] (60 min); 35% in series [1] (90 min). Besides, the “% release of Compound (I)” value in series [1] (120 min) is 47%; in series [1] (150 min), 59%; in series [1] (180 min), 70%; in series [1] (210 min) it was 80%; in series [1] (240 min) it was 88%.
